# Test results from patent US11865126B2, “Method for treating anxiety disorders, headache disorders, and eating disorders with psilocybin” (priority 2019, dated 2024).
# Tested on: healthy subjects
# Experiment: Phase 1 healthy volunteer study, single oral dose: treatment-emergent adverse events
# Assay type: in vivo, human
# Experimental: A Phase 1 randomized, double-blind, placebo-controlled study to evaluate the effect of psilocybin on cognitive and emotional processing as compared to placebo in healthy volunteers was conducted. The study investigated the short-term (Day 7) and long-term (Day 28) effects of moderate (10 mg) and high doses (25 mg) of psilocybin on key domains of cognition, such as episodic memory, attention, working and spatial memory, social cognition and elements of executive function, including cognitive flexibility.
# 90 healthy subjects were studied. Approximately 50% of the subjects were psilocybin-naïve. For subjects with prior psilocybin experience, the last exposure was at least 1 year prior to the signing of the Informed Consent Form (ICF). Approximately 50% of the subjects were female. Subjects were stratified by sex and age (18-35 years old; >35 years old).
# Each subject was assigned 1 treatment bottle containing 5 capsules packaged in a double-blind fashion, depending on the randomized treatment arm, the bottle contained one of the following: • a. Psilocybin 10 mg: 2×5-mg oral psilocybin capsules plus 3× placebo capsules • b. Psilocybin 25 mg: 5×5-mg oral psilocybin capsules • c. Placebo: 5× placebo capsules
# Each 5-mg oral psilocybin capsule comprised 5 mg crystalline psilocybin in the form of Polymorph A, 12.5 mg of SMCC 50, 79.5 mg of SMCC 90, 1 mg sodium starch glycolate, 1 mg colloidal silicon dioxide, and 1 mg sodium stearyl fumarate
# Adverse events: Throughout the course of the study, all AEs were monitored and recorded. Each AE was classified according to the following criteria: • i. […] Moderate: The AE produces some impairment of functioning, but is not hazardous to the subject's health. • iii. Severe: The AE produces significant impairment of functioning or incapacitation and is a definite hazard to the subject's health.
# Selected Adverse Events of included: • (a) Euphoric mood • (b) Dissociative disorder • (c) Hallucination • (d) Psychotic disorder • (e) Cognitive disorder • (f) Disturbance in attention • (g) Altered mood • (h) Impairment of psychomotor skills • (i) Inappropriate affect • (j) Overdose • (k) Intentional product misuse • (l) Illusion
# For example, drug-induced hepatitis that resolved without evidence of hepatic failure would not be considered life threatening even though drug-induced hepatitis can be fatal. • (c) Inpatient hospitalization or prolongation of existing hospitalization. • (d) Persistent or significant disability/incapacity. • (e) Congenital anomaly/birth defect in the offspring of a subject who received psilocybin. • (f) Other: Important medical events that may not result in death, be life-threatening, or require hospitalization, may be considered an SAE when, based upon appropriate medical judgment, they may jeopardize the subject and may require medical or surgical intervention to prevent one of the outcomes listed in this definition. […] Visits:
# Visit 3 (V3): Drug Administration (Day 0): The subject was asked to eat a light breakfast at least two hours prior to coming to the clinic for study drug administration. On Day 0 (V3), the subject underwent the SSTS, had vital signs obtained, medications reviewed, AEs recorded and eligibility reviewed prior to being randomized to study drug. The study drug was administered to up to six subjects simultaneously in individual beds separated by a curtain. The subject was invited to put on eyeshades and headphones, lie down and listen to calming music for the rest of the session (six hours). The subject was supported 1:1 with a chaperone and supervised by the study psychiatrist and lead therapist.
# Recording of adverse events and prior/concomitant medication was performed at each visit.
# During administration of psilocybin, each subject received one on one support from a trained assisting therapist and each dosing session was supervised by a study psychiatrist and a lead therapist. […]
compound,measurement,setting,value
CN(C)CCc1c[nH]c2cccc(OP(=O)(O)O)c12 [psilocybin],"Infections and infestations, worst severity Severe: N (%)",10 mg,0
same,Infections and infestations: Events,10 mg,4
same,"Investigations, worst severity Mild: Events",10 mg,2
same,"Investigations, worst severity Moderate: Events",10 mg,0
same,"Investigations, worst severity Moderate: N (%)",10 mg,0
same,"Investigations, worst severity Severe: Events",10 mg,0
same,"Investigations, worst severity Severe: N (%)",10 mg,0
same,Investigations: Events,10 mg,2
same,Mental fatigue: Events,10 mg,0
same,Mental fatigue: N (%),10 mg,0
same,"Mood altered, worst severity Mild: Events",10 mg,2
same,"Mood altered, worst severity Moderate: Events",10 mg,8
same,"Mood altered, worst severity Severe: Events",10 mg,9
same,"Mood altered, worst severity Severe: N (%)",10 mg,6 (20.0)
same,Mood altered: Events,10 mg,23
same,"Musculoskeletal and connective tissue disorders, worst severity Mild: Events",10 mg,0
same,"Musculoskeletal and connective tissue disorders, worst severity Mild: N (%)",10 mg,0
same,"Musculoskeletal and connective tissue disorders, worst severity Moderate: Events",10 mg,1
same,"Musculoskeletal and connective tissue disorders, worst severity Severe: Events",10 mg,0
same,"Musculoskeletal and connective tissue disorders, worst severity Severe: N (%)",10 mg,0
same,Musculoskeletal and connective tissue disorders: Events,10 mg,1
same,Nausea: Events,10 mg,1
same,"Nervous system disorders, worst severity Mild: Events",10 mg,23
same,"Nervous system disorders, worst severity Moderate: Events",10 mg,8
same,"Nervous system disorders, worst severity Moderate: N (%)",10 mg,6 (20.0)
same,"Nervous system disorders, worst severity Severe: Events",10 mg,0
same,"Nervous system disorders, worst severity Severe: N (%)",10 mg,0
same,Nervous system disorders: Events,10 mg,35
same,"Paraesthesia, worst severity Mild: Events",10 mg,4
same,"Paraesthesia, worst severity Moderate: Events",10 mg,0
same,"Paraesthesia, worst severity Moderate: N (%)",10 mg,0
same,"Paraesthesia, worst severity Severe: Events",10 mg,0
same,"Paraesthesia, worst severity Severe: N (%)",10 mg,0
same,Paraesthesia: Events,10 mg,4
same,"Psychiatric disorders, worst severity Mild: Events",10 mg,6
same,"Psychiatric disorders, worst severity Moderate: Events",10 mg,29
same,"Psychiatric disorders, worst severity Severe: Events",10 mg,21
same,"Respiratory, thoracic and mediastinal disorders: Events",10 mg,0
same,"Respiratory, thoracic and mediastinal disorders: N (%)",10 mg,0
same,"Somatic hallucination, worst severity Mild: Events",10 mg,1
same,"Somatic hallucination, worst severity Moderate: Events",10 mg,7
same,"Somatic hallucination, worst severity Severe: Events",10 mg,0
same,"Somatic hallucination, worst severity Severe: N (%)",10 mg,0
same,Somatic hallucination: Events,10 mg,8
same,"Tension headache, worst severity Mild: Events",10 mg,1
same,"Tension headache, worst severity Moderate: Events",10 mg,2
same,"Tension headache, worst severity Severe: Events",10 mg,0
same,"Tension headache, worst severity Severe: N (%)",10 mg,0
same,Tension headache: Events,10 mg,3
same,Tension headache: N (%),10 mg,3 (10.0)
same,"Time perception altered, worst severity Mild: Events",10 mg,1
same,"Time perception altered, worst severity Moderate: Events",10 mg,1
same,"Time perception altered, worst severity Severe: Events",10 mg,0
same,"Time perception altered, worst severity Severe: N (%)",10 mg,0
same,Time perception altered: Events,10 mg,2
same,"Incidence of Illusion, Hallucination (visual), Mood altered, Headache, Fatigue and Euphoric mood compared to placebo",10 mg and 25 mg,higher
same,Majority of the severe TEAEs (system organ class),10 mg and 25 mg arms,psychiatric disorders
same,Serious adverse events or adverse events that led to withdrawal,"10 mg and 25 mg, 12-week study",no serious adverse events or adverse events that led to withdrawal
same,Reported 'Mood altered' events: Being less judgmental,10 mg psilocybin (n = 30),1
same,Reported 'Mood altered' events: Calm,10 mg psilocybin (n = 30),0
same,Reported 'Mood altered' events: Clarity of thought,10 mg psilocybin (n = 30),0
same,Reported 'Mood altered' events: Contemplative state,10 mg psilocybin (n = 30),1
same,Reported 'Mood altered' events: Feeling more moody/sensitive,10 mg psilocybin (n = 30),1
same,Reported 'Mood altered' events: Feeling of adrenaline release,10 mg psilocybin (n = 30),0
same,Reported 'Mood altered' events: Feeling rested,10 mg psilocybin (n = 30),1
same,Reported 'Mood altered' events: Increased compassion,10 mg psilocybin (n = 30),0
same,Reported 'Mood altered' events: Increased creativity,10 mg psilocybin (n = 30),0
same,Reported 'Mood altered' events: Increased empathy,10 mg psilocybin (n = 30),2
same,Reported 'Mood altered' events: Increased sense of connectedness,10 mg psilocybin (n = 30),0
same,Reported 'Mood altered' events: Increased wit,10 mg psilocybin (n = 30),1
same,Reported 'Mood altered' events: Introspection,10 mg psilocybin (n = 30),5
same,Reported 'Mood altered' events: Laughter,10 mg psilocybin (n = 30),1
same,Reported 'Mood altered' events: More socially upbeat,10 mg psilocybin (n = 30),0
same,Reported 'Mood altered' events: Negative mood,10 mg psilocybin (n = 30),0
same,Reported 'Mood altered' events: Reflections,10 mg psilocybin (n = 30),3
same,Reported 'Mood altered' events: Saw themselves from a new perspective,10 mg psilocybin (n = 30),0
same,Reported 'Mood altered' events: Sense of oneness,10 mg psilocybin (n = 30),4
same,Reported 'Mood altered' events: Sense of openness,10 mg psilocybin (n = 30),1
same,Reported 'Mood altered' events: Unusual appreciation of music,10 mg psilocybin (n = 30),0
same,Any TEAE: % of subjects,"10 mg, listed as Psilocybin",(96.7) %
same,"AEs potentially related to study treatment, % of AEs in arm",25 mg,95.9%
same,"Affect lability, worst severity Mild: Events",25 mg,2
same,"Affect lability, worst severity Moderate: Events",25 mg,1
same,"Affect lability, worst severity Severe: Events",25 mg,0
same,"Affect lability, worst severity Severe: N (%)",25 mg,0
same,Affect lability: Events,25 mg,3
same,Affect lability: N (%),25 mg,3 (10.0)
same,Any Selected TEAE: % of subjects,25 mg,(90.0) %
same,Any Selected TEAE: N (%),25 mg,27
same,Any TEAE leading to death: Events,25 mg,0
same,Any TEAE leading to death: N (%),25 mg,0
same,Any TEAE leading to study discontinuation: Events,25 mg,0
same,Any TEAE leading to study discontinuation: N (%),25 mg,0
same,Any TEAE related to study treatment: % of subjects,25 mg,(96.7) %
same,Any TEAE related to study treatment: N (%),25 mg,29
same,"Any TEAE, worst severity Mild: Events",25 mg,14
same,"Any TEAE, worst severity Mild: N (%)",25 mg,3 (10.0)
same,"Any TEAE, worst severity Moderate: Events",25 mg,52
same,"Any TEAE, worst severity Severe: Events",25 mg,29
same,Any TEAE: % of subjects,25 mg,96.7%
same,Any serious TEAE related to study treatment: Events,25 mg,0
same,Any serious TEAE related to study treatment: N (%),25 mg,0
same,Any serious TEAE: Events,25 mg,0
same,Any serious TEAE: N (%),25 mg,0
